Where “and” joins values, the source holds several entries; their conditions need not be identical. Equal entries are not always repeated.
Tests used:
[1] = target: T1, Abg (Agrobacterium Sp. β-glucosidase) (Agrobacterium sp., UniProt P12614); experiment: Enzymatic hydrolysis at 13 mM studied by quantitative 1H NMR; format: biochemical; conditions: 13 mM substrate in D2O, maleate buffer pD 6.5, Abg 1.6 U/mL, 37 °C
T1 sequence (P12614 1-459): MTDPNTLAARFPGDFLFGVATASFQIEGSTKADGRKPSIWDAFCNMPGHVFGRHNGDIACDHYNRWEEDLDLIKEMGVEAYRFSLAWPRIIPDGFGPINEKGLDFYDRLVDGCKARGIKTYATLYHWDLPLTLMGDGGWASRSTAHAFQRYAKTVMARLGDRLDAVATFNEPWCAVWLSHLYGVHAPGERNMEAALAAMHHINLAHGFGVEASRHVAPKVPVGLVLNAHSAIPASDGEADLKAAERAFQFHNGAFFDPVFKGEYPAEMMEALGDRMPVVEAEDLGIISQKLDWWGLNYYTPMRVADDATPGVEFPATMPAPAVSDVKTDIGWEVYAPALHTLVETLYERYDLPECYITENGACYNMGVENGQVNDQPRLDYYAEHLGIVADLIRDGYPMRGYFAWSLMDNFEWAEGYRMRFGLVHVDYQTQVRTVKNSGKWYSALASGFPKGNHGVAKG

[2] = target: T2, Agrobacterium Sp. β-glucosidase (Abg, GH1 family) (Agrobacterium sp., UniProt P12614); experiment: Michaelis-Menten kinetics of enzymatic hydrolysis, release of 4-nitrophenol (absorbance at 405 nm); format: biochemical; conditions: transglycosylation suggested for rate enhancement
T2 sequence (P12614 1-459): T1 sequence (P12614 1-459)
Protocol: Enzymatic reactions were performed in triplo at pH 6.8 (50 mM final concentration) containing 0.1 % bovine serum albumin at 37 °C.[25] Aliquots of 100 μL were taken at constant time periods and added to 100 μL aq. NaOH (0.1 M) in a 96‐well microtitre plate to quench the enzymatic reaction and ensure maximal absorption of sodium 4‐nitrophenolate as outlined in previous studies.[28] The initial rate (vo) was determined normalized on the ∼0.1 U/mL enzyme concentration and plotted against substrate concentration [S]. Non‐linear regression analysis based on 7–10 concentrations depending on the glycoside, was used to determine the Km and k cat values. k cat values were normalized based on the enzyme concentration. […]
Kinetic evaluation of 4- nitrophenyloxymethyl glycosides. Enzyme reactions were performed in triplicate. Substrate samples (final volume of 1 mL) were prepared by diluting carefully prepared substrate stock solutions with sodium phosphate buffer pH 6.8 (50 mM final concentration) containing 0.1% bovine serum albumin and milliQ to the desired concentration. The samples were equilibrated at 37 °C for at least 5 minutes before the enzyme in 50 mM buffer (2 U per ml, 50 uL) was added. Aliquots of 100 µL were taken at constant time periods and added to 100 µL aq. NaOH (0.1 M) in a 96 well microtiter plate to quench the enzymatic reaction. The absorbance was measured at 405 nm using a Tecan Spark M10 plate reader.
Negative assay controls contained no substrate or no enzyme. Rates of the enzymatic reactions were determined at 7 different substrate concentrations from 0.02 – 1.0 mM. Km and kcat values were determined by nonlinear regression analysis using Graphpad 5.0 (GraphPad Software, San Diego, California USA, www.graphpad.com) for fitting the data. Calibration samples at varying concentration (0.05 – 0.5 mM) were prepared similar to the substrate samples in the enzyme reactions by diluting a carefully prepared 4-nitrophenol stock solution with sodium phosphate buffer pH 6.8 (50 mM final concentration) containing 0.1% bovine serum albumin and milliQ to the desired concentration. […]
(T1 determined as 9.13 sec.) was used. Dynamic measurements were started by heating the sample in the NMR to 37 °C and recording a t0-spectrum. Subsequently Abg (V = 2.05 uL, 0.82 U, 1.64 U/mL) was added to the sample outside of the NMR. The sample was mixed by shaking and quickly reintroduced to the NMR.
The time of enzyme addition was recorded as t0. Spectra were recorded over an appropriate time- scale with the relaxation delay at 3*T1 of the internal standard.
In vivo experiments were performed at the company Charles Rivers (Den Bosch, The Netherlands) in accordance with Dutch law of animal experiments and under approval of the central committee of animal experiments (CCD). Relative and absolute bioavailability may be determined in different animal models and according to different protocols.
The following protocol is typical for determining bioavailability in female Beagle dogs. The animals were deprived from food over a time period of 8 h prior to administration and 2 h after administration of the test molecules. Water was supplied without limitation. On the study day, the animals received test molecule 10h […]
ethanol and 0.9% NaCl + 5% mannitol in water. Blood samples were collected from the jugular vein on the […]

[3] = target: T1, Abg (Agrobacterium Sp. β-glucosidase); experiment: Enzymatic conversion of glycoside-drug conjugates at 200 μM analyzed by HPLC; format: biochemical; conditions: 37 °C; for Product release: 200 μM substrate, 50 mM phosphate buffer pH 6.8, Abg 0.1 U/mL
[4] = Control experiments without enzyme (stability in assay buffer); format: physicochemical; conditions: 200 μM, 50 mM phosphate buffer pH 6.8, 37 °C, HPLC
[5] = pH stability test and stability in formulation; format: physicochemical
Protocol: In vivo experiments. […] To investigate the chemical stability towards conditions in the gastrointestinal tract, we performed pH stability test. […] The pharmacokinetic profile of 10 h was studied in a dog‐animal model (adult beagle).

[6] = In vivo pharmacokinetics study after oral gavage, losartan in blood by LC-MS-MS; set-up: species or system female Beagle dogs; conditions: 15 μmol/kg oral gavage, Beagle dog; for Intact conjugate in the blood circulation: LC-MS-MS

## O=[N+]([O-])c1ccc(OCO[C@@H]2O[C@H](CO)[C@@H](O)[C@H](O)[C@H]2O)cc1 [5 a, 4‐nitrophenyloxymethyl glucoside]
[1]
  Release of 4-nitrophenol followed by 1H NMR (in words): showed release of 4‐nitrophenol

## O=[N+]([O-])c1ccc(O[C@@H]2O[C@H](CO)[C@@H](O)[C@H](O)[C@H]2O)cc1 [6 a, reference compound]
[2]
  V0 at high substrate concentration (in words): followed a horizontal asymptote
[1]
  Release of 4-nitrophenol followed by 1H NMR (in words): release of 4‐nitrophenol

## O=c1[nH]c(=O)n(CO[C@@H]2O[C@H](CO)[C@@H](O)[C@H](O)[C@H]2O)cc1F [10 f]
[3]; 0.5 h
  Product release: 46% and 45.8±5.2%
[3]; 1.0 h
  Product release: 65.2±1.5%
[3]; 2.0 h
  Product release: 77.8±9.7%
[4]
  Degradation in the control experiment (without enzyme): no degradation was observed

## CCCCc1nc(Cl)c(CO)n1Cc1ccc(-c2ccccc2-c2nnnn2CO[C@@H]2O[C@H](CO)[C@@H](O)[C@H](O)[C@H]2O)cc1 [10 h]
[5]; formulation for oral gavage
  Stability in formulation: stable in formulation
[5]; pH 1–2
  Chemical stability under acidic conditions: stable for 16 h
[5]; pH 1–2, 16 h
  Release of the parent drug under acidic conditions: did not show any release of the parent drug
[3]; 200 μM, HPLC, in presence of 5 % ethanol
  Enzymatic hydrolysis by Abg (in words): hydrolyzed efficiently
[3]; 0.5 h, in presence of 5 % ethanol
  Product release: 29.3±0.24%
[3]; 1.0 h, in presence of 5 % ethanol
  Product release: 50.4±0.4%
[3]; 2.0 h, in presence of 5 % ethanol
  Product release: 77.2±0.7%
[6]
  Maximum concentration (Cmax) of losartan versus dosing of parent (in words): higher
  Intact conjugate in the blood circulation: no intact conjugate was detected
[6]; listed as 19
  Intact conjugate in the blood circulation: no conjugate was detected

Reference: article PMC9304170, “Chloromethyl Glycosides as Versatile Synthons to Prepare Glycosyloxymethyl‐Prodrugs” (Chemistry (Weinheim an Der Bergstrasse, Germany), 2022)
